{
  "source": "patent US10370425B2",
  "about": "“Peptide antagonists of the calcitonin CGRP family of peptide hormones and their use” (priority 2012, dated 2019)",
  "note": "Positions of bridges follow the written chain, without caps; N, C: chain ends. Residues, ends and D or L forms follow the SMILES beside them.",
  "data": [
    {"molecular_target": "T1, amylin receptor, AMY1, a CT (calcitonin) receptor/RAMP1 (receptor-activity modifying protein) complex (Homo sapiens, UniProt O60894+P30988)", "T1 construct": "host or cells: CHO-K1/AMY1/Gα15", "T1 sequence (P30988 25-474)": "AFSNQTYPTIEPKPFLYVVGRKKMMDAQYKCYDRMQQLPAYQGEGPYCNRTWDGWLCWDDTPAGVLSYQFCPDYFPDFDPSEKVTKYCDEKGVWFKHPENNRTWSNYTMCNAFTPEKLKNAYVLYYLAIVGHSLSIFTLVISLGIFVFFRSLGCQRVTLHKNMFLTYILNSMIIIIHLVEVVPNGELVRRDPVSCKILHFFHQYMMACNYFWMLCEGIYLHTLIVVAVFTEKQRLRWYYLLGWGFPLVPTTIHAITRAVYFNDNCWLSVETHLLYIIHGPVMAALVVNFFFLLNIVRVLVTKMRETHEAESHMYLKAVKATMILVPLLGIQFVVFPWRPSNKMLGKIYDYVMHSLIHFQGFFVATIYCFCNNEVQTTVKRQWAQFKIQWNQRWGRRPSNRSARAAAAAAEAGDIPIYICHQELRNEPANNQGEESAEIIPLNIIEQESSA", "T1 sequence (O60894 27-148)": "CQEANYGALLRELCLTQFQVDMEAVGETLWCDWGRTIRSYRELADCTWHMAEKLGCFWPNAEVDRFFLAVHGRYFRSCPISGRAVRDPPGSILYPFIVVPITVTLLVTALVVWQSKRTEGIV", "assay": "Calcium flux assay (FLIPR Calcium 4) of inhibition of α-CGRP stimulation in CHO-K1/AMY1/Gα15 cells", "format": "cell-based", "details": "at maximal test concentration (series starts with 1 μM); CHO-K1/AMY1/Gα15 cells stimulated with 32 nM (EC80) α-CGRP; n = 2; read-out: % Inhibition @ Maximal concentration (Mean +/− SD, n = 2)", "procedure": "Using a calcium flux assay, the dose-dependent inhibitory response of peptide antagonists of the present invention on an amylin receptor, AMY1, a CT (calcitonin) receptor/RAMP1 (receptor-activity modifying protein) complex was determined. The recombinant cell line CHO-K1/AMY1/Gα15 (GenScript, Piscataway, N.J., Catalog No. M00475) was employed in the assay. Peptide antagonist activities were tested, in duplicate, at five different concentrations, starting with 1 μM and serially diluted five-fold, in DMSO. AC187 (SEQ ID NO: 55), a known amylin receptor antagonist (available for example from Tocris Bioscience, Minneapolis, Minn., Catalog No. 3419) was used as a positive control in the assays, and human α-CGRP, a known amylin receptor agonist (SEQ ID NO:56) , (available for example from Tocris Bioscience, Minneapolis, Minn., Catalog No. 3012) was used as a positive control in the assays. The FLIPR® Calcium 4 Assay Kit (Molecular Devices, Sunnyvale, Calif.) was used.\nHuman α-CGRP having the amino acid sequence, NH2-[…]-NH2 (SEQ ID NO:56) and AC187 having the sequence […] (SEQ ID NO: 55) were employed as negative and positive controls, respectively. Stock solutions were further diluted in HBSS-HEPES buffer to make 5×final control solutions.\nCHO-K1/AMY1/Gα15 cells were seeded in a 384-well black wall, clear bottom plate at a density of 20,000 cells/well in 20 μL of growth medium 20 hours prior to the day of the experiment and maintained at 37° C./5% CO2.\nPer the assay kit protocol, dye-loading solution (at 2×final concentration) was added into the assay plate, 20 μL per well. Compound solution (at 5 ×final concentration) was added into the assay plate, 10 uL per well. The assay plate was placed into a 37° C. incubator for 1 hour, then left for 15 min at RT. The agonist plate (at 5×EC80 concentration) was placed in Source 2. The total reading time was 120 sec. The agonist was added after 20 seconds reading of the baseline and the fluorescence signal was captured for another 100 seconds (21 s to 120 s).\nIn screening, cells stimulated with assay buffer were chosen as the background; cells stimulated with agonist (at […] concentration) were chosen as the negative control.\nData were recorded by ScreenWorks (version 3.1) as FMD files and stored on the GenScript computer network for off-line analysis. Data acquisition and analyses was performed using ScreenWorks (version 3.1) program and exported to Excel. The average value of 20 (1 s to 20 s) seconds reading was calculated as the baseline reading and the relative fluorescent units (ΔRFU) intensity values were calculated with the maximal fluorescent units (21 s to 120 s) subtracting the average value of baseline reading.\nThe IC50 value of AC187 was 8 μM. The inhibitory activity of the tested peptide antagonists was normalized with the negative control (AC187) and reported as % Inhibition, calculated from the following equation: % Inhibition=(ΔRFUcompound−ΔRFUBackground)/(ΔRFUNegative control−ΔRFUBackground) * 100% Inhibition was then plotted along the Y-axis, with the test concentrations as indicated on the X-axis. The peptides were tested at indicated concentrations and stimulated with 32 nM (EC80) α-CGRP (Mean +/− SD, n=2).", "units": {"inhibition at 1 µM": "%"}, "values": [
      {"compound": "CC(C)C[C@H](NC(=O)[C@H](CCCNC(=N)N)NC(=O)CNC(=O)[C@H](CC(C)C)NC(=O)[C@@H](NC(=O)[C@@H]1CSSC[C@H](NC(=O)[C@H](C)N)C(=O)N[C@@H](CC(N)=O)C(=O)N[C@@H]([C@@H](C)O)C(=O)N[C@@H](C)C(=O)N[C@@H](C)C(=O)N1)C(C)C)C(=O)N[C@@H](CO)C(=O)N[C@@H](CCC(N)=O)C(=O)N[C@@H](CCC(=O)O)C(=O)N[C@@H](CC(C)C)C(=O)N[C@@H](Cc1c[nH]cn1)C(=O)N[C@@H](CCCNC(=N)N)C(=O)N[C@@H](CC(C)C)C(=O)N[C@@H](CCC(N)=O)C(=O)N[C@H](C(=O)N[C@@H](Cc1ccc(O)cc1)C(=O)N1CCC[C@H]1C(=O)N[C@@H](CCCNC(=N)N)C(=O)N[C@H](C(=O)N[C@@H](CC(N)=O)C(=O)N[C@H](C(=O)NCC(=O)N[C@@H](CO)C(=O)N[C@@H](CCCCN)C(=O)N[C@@H](C)C(=O)N[C@@H](Cc1ccccc1)C(N)=O)C(C)C)[C@@H](C)O)[C@@H](C)O", "note": "[compound 4] (H-ACNTAACVLGRLSQELHRLQTYPRTNVGSKAF-NH2; disulfide 2-7 (inferred))", "inhibition at 1 µM": 94.6},
      {"compound": "CC(C)C[C@H](NC(=O)[C@H](CCCNC(=N)N)NC(=O)CNC(=O)[C@H](CC(C)C)NC(=O)[C@@H](NC(=O)[C@@H]1CSSC[C@H](NC(=O)[C@H](C)N)C(=O)N[C@@H](C(C)C)C(=O)N[C@@H](CC(C)C)C(=O)NCC(=O)N[C@@H](C)C(=O)N1)C(C)C)C(=O)N[C@@H](CO)C(=O)N[C@@H](CCC(N)=O)C(=O)N[C@@H](CCC(=O)O)C(=O)N[C@@H](CC(C)C)C(=O)N[C@@H](Cc1c[nH]cn1)C(=O)N[C@@H](CCCNC(=N)N)C(=O)N[C@@H](CC(C)C)C(=O)N[C@@H](CCC(N)=O)C(=O)N[C@H](C(=O)N[C@@H](Cc1ccc(O)cc1)C(=O)N1CCC[C@H]1C(=O)N[C@@H](CCCNC(=N)N)C(=O)N[C@H](C(=O)N[C@@H](CC(N)=O)C(=O)N[C@H](C(=O)NCC(=O)N[C@@H](CO)C(=O)N[C@@H](CCCCN)C(=O)N[C@@H](C)C(=O)N[C@@H](Cc1ccccc1)C(N)=O)C(C)C)[C@@H](C)O)[C@@H](C)O", "note": "[compound 5] (H-ACVLGACVLGRLSQELHRLQTYPRTNVGSKAF-NH2; disulfide 2-7 (inferred))", "inhibition at 1 µM": 88.5},
      {"compound": "CC(C)C[C@H](NC(=O)[C@H](CCCNC(=N)N)NC(=O)CNC(=O)[C@H](CC(C)C)NC(=O)[C@@H](NC(=O)[C@@H]1CSSC[C@H](NC(=O)[C@H](C)N)C(=O)N[C@@H](CC(N)=O)C(=O)N[C@@H](CC(C)C)C(=O)N[C@@H](CO)C(=O)N[C@@H](C(C)C)C(=O)N1)C(C)C)C(=O)N[C@@H](CO)C(=O)N[C@@H](CCC(N)=O)C(=O)N[C@@H](CCC(=O)O)C(=O)N[C@@H](CC(C)C)C(=O)N[C@@H](Cc1c[nH]cn1)C(=O)N[C@@H](CCCNC(=N)N)C(=O)N[C@@H](CC(C)C)C(=O)N[C@@H](CCC(N)=O)C(=O)N[C@H](C(=O)N[C@@H](Cc1ccc(O)cc1)C(=O)N1CCC[C@H]1C(=O)N[C@@H](CCCNC(=N)N)C(=O)N[C@H](C(=O)N[C@@H](CC(N)=O)C(=O)N[C@H](C(=O)NCC(=O)N[C@@H](CO)C(=O)N[C@@H](CCCCN)C(=O)N[C@@H](C)C(=O)N[C@@H](Cc1ccccc1)C(N)=O)C(C)C)[C@@H](C)O)[C@@H](C)O", "note": "[compound 11] (H-ACNLSVCVLGRLSQELHRLQTYPRTNVGSKAF-NH2; disulfide 2-7 (inferred))", "inhibition at 1 µM": 96.5},
      {"compound": "CC(C)C[C@H](NC(=O)[C@H](CCCNC(=N)N)NC(=O)CNC(=O)[C@H](CC(C)C)NC(=O)[C@@H](NC(=O)[C@@H]1CSSC[C@H](NC(=O)[C@H](C)N)C(=O)N[C@@H](C(C)C)C(=O)N[C@@H](CC(C)C)C(=O)NCC(=O)N[C@@H](C)C(=O)N1)C(C)C)C(=O)N[C@@H](CO)C(=O)N[C@@H](CCC(N)=O)C(=O)N[C@@H](CCC(=O)O)C(=O)N[C@@H](CC(C)C)C(=O)N[C@@H](Cc1c[nH]cn1)C(=O)N[C@@H](CCCNC(=N)N)C(=O)N[C@@H](CC(C)C)C(=O)N[C@@H](CCC(N)=O)C(=O)N[C@H](C(=O)N[C@@H](Cc1ccc(O)cc1)C(=O)N1CCC[C@H]1C(=O)N[C@H](C(=O)N[C@@H](CC(=O)O)C(=O)N1CCC[C@H]1C(=O)N[C@@H](CO)C(=O)N[C@@H](CO)C(=O)N1CCC[C@H]1C(=O)N[C@@H](Cc1c[nH]cn1)C(=O)N[C@@H](CO)C(=O)N[C@@H](Cc1ccc(O)cc1)C(N)=O)C(C)C)[C@@H](C)O", "note": "[compound 14] (H-ACVLGACVLGRLSQELHRLQTYPVDPSSPHSY-NH2; disulfide 2-7 (inferred))", "inhibition at 1 µM": 51.9},
      {"compound": "CC(C)C[C@H](NC(=O)[C@H](CCCNC(=N)N)NC(=O)CNC(=O)[C@H](CC(C)C)NC(=O)[C@@H](NC(=O)[C@@H]1CSSC[C@H](NC(=O)[C@H](C)N)C(=O)N[C@@H](CC(N)=O)C(=O)N[C@@H](CC(C)C)C(=O)N[C@@H](CO)C(=O)N[C@@H](C)C(=O)N1)C(C)C)C(=O)N[C@@H](CO)C(=O)N[C@@H](CCC(N)=O)C(=O)N[C@@H](CCC(=O)O)C(=O)N[C@@H](CC(C)C)C(=O)N[C@@H](Cc1c[nH]cn1)C(=O)N[C@@H](CCCNC(=N)N)C(=O)N[C@@H](CC(C)C)C(=O)N[C@@H](CCC(N)=O)C(=O)N[C@H](C(=O)N[C@@H](Cc1ccc(O)cc1)C(=O)N1CCC[C@H]1C(=O)N[C@H](C(=O)N[C@@H](CC(N)=O)C(=O)N[C@H](C(=O)NCC(=O)N[C@@H](CO)C(=O)NCC(=O)N[C@H](C(=O)N1CCC[C@H]1C(N)=O)[C@@H](C)O)[C@@H](C)O)[C@@H](C)O)[C@@H](C)O", "note": "[compound 13] (H-ACNLSACVLGRLSQELHRLQTYPTNTGSGTP-NH2; disulfide 2-7 (inferred))", "inhibition at 1 µM": 95.8},
      {"compound": "CC(C)C[C@H](NC(=O)[C@H](CCCNC(=N)N)NC(=O)CNC(=O)[C@H](CC(C)C)NC(=O)[C@@H](NC(=O)[C@@H]1CSSC[C@H](NC(=O)[C@H](C)N)C(=O)N[C@@H](CC(=O)O)C(=O)N[C@@H]([C@@H](C)O)C(=O)N[C@@H](C)C(=O)N[C@@H](C)C(=O)N1)C(C)C)C(=O)N[C@@H](CO)C(=O)N[C@@H](CCC(N)=O)C(=O)N[C@@H](CCC(=O)O)C(=O)N[C@@H](CC(C)C)C(=O)N[C@@H](Cc1c[nH]cn1)C(=O)N[C@@H](CCCNC(=N)N)C(=O)N[C@@H](CC(C)C)C(=O)N[C@@H](CCC(N)=O)C(=O)N[C@H](C(=O)N[C@@H](Cc1ccc(O)cc1)C(=O)N1CCC[C@H]1C(=O)N[C@@H](CCCNC(=N)N)C(=O)N[C@H](C(=O)N[C@@H](CC(N)=O)C(=O)N[C@H](C(=O)NCC(=O)N[C@@H](CO)C(=O)N[C@@H](CCCCN)C(=O)N[C@@H](C)C(=O)N[C@@H](Cc1ccccc1)C(N)=O)C(C)C)[C@@H](C)O)[C@@H](C)O", "note": "[compound 1] (H-ACDTAACVLGRLSQELHRLQTYPRTNVGSKAF-NH2; disulfide 2-7 (inferred))", "inhibition at 1 µM": 94.4},
      {"compound": "CC(C)C[C@@H]1NC(=O)[C@H](C)NC(=O)[C@H]([C@@H](C)O)NC(=O)[C@H](CC(=O)O)NC(=O)[C@@H](NC(=O)[C@H](C)N)CSSC[C@@H](C(=O)N[C@H](C(=O)N[C@@H](CC(C)C)C(=O)NCC(=O)N[C@@H](CCCNC(=N)N)C(=O)N[C@@H](CC(C)C)C(=O)N[C@@H](CO)C(=O)N[C@@H](CCC(N)=O)C(=O)N[C@@H](CCC(=O)O)C(=O)N[C@@H](CC(C)C)C(=O)N[C@@H](Cc2c[nH]cn2)C(=O)N[C@@H](CCCNC(=N)N)C(=O)N[C@@H](CC(C)C)C(=O)N[C@@H](CCC(N)=O)C(=O)N[C@H](C(=O)N[C@@H](Cc2ccc(O)cc2)C(=O)N2CCC[C@H]2C(=O)N[C@@H](CCCNC(=N)N)C(=O)N[C@H](C(=O)N[C@@H](CC(N)=O)C(=O)N[C@H](C(=O)NCC(=O)N[C@@H](CO)C(=O)N[C@@H](CCCCN)C(=O)N[C@@H](C)C(=O)N[C@@H](Cc2ccccc2)C(N)=O)C(C)C)[C@@H](C)O)[C@@H](C)O)C(C)C)NC1=O", "note": "[compound 9] (H-ACDTALCVLGRLSQELHRLQTYPRTNVGSKAF-NH2; disulfide 2-7 (inferred))", "inhibition at 1 µM": 95.6}
    ]}
  ]
}
